Test results taken from patent US7816489B2, “Methods for making intermediates and oxytocin analogues” (Ferring B.V., priority 2002, dated 2010).

Target: T1, Recombinant human oxytocin receptors (Homo sapiens, UniProt P30559)
T1 construct: expressed in transfected cells; host or cells: CHO cells
T1 sequence (P30559 1-389): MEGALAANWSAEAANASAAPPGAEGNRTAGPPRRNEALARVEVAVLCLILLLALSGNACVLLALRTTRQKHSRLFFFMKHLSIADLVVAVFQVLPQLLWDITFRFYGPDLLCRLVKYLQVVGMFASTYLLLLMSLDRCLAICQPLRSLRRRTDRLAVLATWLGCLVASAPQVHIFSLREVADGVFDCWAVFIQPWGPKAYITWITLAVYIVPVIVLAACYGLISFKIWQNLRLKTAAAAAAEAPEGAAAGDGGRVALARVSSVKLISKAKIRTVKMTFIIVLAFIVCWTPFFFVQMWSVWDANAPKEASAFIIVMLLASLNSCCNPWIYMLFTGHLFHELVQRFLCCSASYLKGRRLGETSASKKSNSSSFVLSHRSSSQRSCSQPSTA
Experiment: Oxytocin receptor binding assay, [125I]-oxytocin, membrane fraction of CHO cells
Settings: receptors expressed in CHO cells; [125I]-oxytocin displacement; read-out: inhibition constant Ki
Procedure: Recombinant human oxytocin receptors were expressed in CHO cells using standard molecular biological techniques. A membrane fraction was prepared and incubated in the presence of [^125I]-oxytocin and varying concentrations of equivalent heptapeptide analogue. Membranes were then isolated by filtration and counted for radioactivity to determine oxytocin binding. An inhibition constant Ki was determined for the analogue.

SMILES: CC[C@@H](C)[C@@H]1NC(=O)[C@H]([C@@H](C)CC)NC(=O)[C@@H](Cc2c[nH]c3ccccc23)NC(=O)CCSCC[C@@H](C(=O)N(C)[C@H](CO)CCCN)NC(=O)[C@H](CC(N)=O)NC1=O [IV]
- Ki: 0.1 nM
